{"source": "patent US20210227868A1", "about": "“Formula with specific beta-lactoglobulin peptides” (N.V. Nutricia, priority 2018, published 2021)", "assay_in_all_cases": "T-cell proliferation assay (stimulation index)", "assay_type_in_all_cases": "cell-based, human", "key": {"TCL A": {"tested_on": "TCL A", "conditions": "SI>=2 positive", "description": "(§1) Synthetic peptides were obtained from JPT technologies. Only peptides containing at least 9 AAs were taken into account, as this is the minimal size for binding to MHC class II molecules and subsequent T-cell recognition (Holland et al, Front Immunol 2013 Jul 1; 4:172.) Synthetic peptides (JPT technologies) identical to the peptides identified in all batches of the HP of example 1 were dissolved in dimethylsulfoxide (Sigma Aldrich) at a concentration of 5.3 mM. The peptides were tested on cow's milk-specific T-cell lines (TCLs) from three different donors. The peptides were tested on cow's milk protein-specific T-cell lines (TCLs) from three infant donors, diagnosed with cow's milk protein allergy. […] Proliferation was determined as described previously (Ruiter et al, Clin Exp Allergy 2006, 36(3):303-310). Stimulation indexes (Sls, ratio between proliferation of allergen/peptide-stimulated and non-stimulated T cells) were calculated and a SI≥2 was considered positive.\n(§2) To confirm that the peptides identified in HP were recognized by T cells, synthetic peptides identical to these identified peptides were tested on cow's milk-specific human TCLs. As there was a considered overlap between the identified peptides, five peptides were tested (Table 7) that were identified in all batches and differed with more than 9A from each other. All tested peptides were able to induce proliferation (FIG. 2). […] This was also seen with the in silico prediction data (data not shown). […] As peptide LIV . . . […] SLL (AA #1-32) did, the region containing AA #28-32 (DISLL) was essential for the response of TCL A. Unexpectedly, TCL C recognized peptide LIV . . . AAS (AA #1-27), while the longer peptide containing the same sequence with 5 additional AAs, LIV . . ."}, "TCL C": {"tested_on": "TCL C", "conditions": "SI>=2 positive", "description": "as §1, §2"}, "[1]": {"tested_on": "cow's milk-specific T-cell lines (TCLs)", "conditions": "TCLs of three cow's milk allergic donors; SI>=2 positive", "description": "as §1, §2"}}, "data": [{"sequence": "LIVTQTMKGLDIQKVAGTWYSLAMAAS (beta-lactoglobulin peptide fragment) [SEQ ID NO: 9]", "values": [{"measurement": "T-cell proliferation", "setting": "TCL A", "value": "not able to induce proliferation"}, {"measurement": "T-cell proliferation", "setting": "TCL C", "value": "recognized"}]}, {"sequence": "LIVTQTMKGLDIQKVAGTWYSLAMAASDISLL (beta-lactoglobulin peptide fragment) [SEQ ID NO: 11]", "values": [{"measurement": "T-cell proliferation", "setting": "TCL A", "value": "did"}, {"measurement": "T-cell proliferation", "setting": "TCL C", "value": "not able to induce a proliferative response"}]}, {"sequence": "TMKGLDIQKVAGTWYSLAMAASDISLLDAQ (beta-lactoglobulin peptide fragment) [SEQ ID NO: 4]", "values": [{"measurement": "T-cell proliferation / reactivity", "setting": "[1]", "value": "reactivity of every cell line was covered"}]}]}
